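Five compound concentrations were applied to cells in 96-well plates for 48 hours; endpoints were derived by simple linear interpolation of the resulting dose-response curve. The concentration for 50% growth inhibition is given as GI50. TGI is the concentration that stops growth completely.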
How the values were obtained:
Assay in all cases: DTP human tumour cell line panel, 48 h
IGROV1 ovarian = system: IGROV1 ovarian
MDA-MB-435 = system: MDA-MB-435
NCI-H226 lung = system: NCI-H226 lung
SF-268 CNS = system: SF-268 CNS
TK-10 renal = system: TK-10 renal
HS 578T breast = system: HS 578T breast
T-47D breast = system: T-47D breast
MOLT-4 leukemia = system: MOLT-4 leukemia
ACHN renal = system: ACHN renal
U251 CNS = system: U251 CNS
COLO 205 colon = system: COLO 205 colon
NCI-H460 lung = system: NCI-H460 lung
M14 melanoma = system: M14 melanoma
MALME-3M melanoma = system: MALME-3M melanoma
RPMI-8226 leukemia = system: RPMI-8226 leukemia
SK-MEL-28 melanoma = system: SK-MEL-28 melanoma
SF-539 CNS = system: SF-539 CNS
SF-295 CNS = system: SF-295 CNS
UACC-257 melanoma = system: UACC-257 melanoma
SR leukemia = system: SR leukemia
HOP-62 NSCLC = system: HOP-62 NSCLC
SW-620 colon = system: SW-620 colon
CAKI-1 renal = system: CAKI-1 renal
OVCAR-8 ovarian = system: OVCAR-8 ovarian
OVCAR-4 ovarian = system: OVCAR-4 ovarian
UACC-62 melanoma = system: UACC-62 melanoma
SN12C renal = system: SN12C renal
BT-549 breast = system: BT-549 breast
HCT-116 colon = system: HCT-116 colon
HCC-2998 colon = system: HCC-2998 colon
EKVX NSCLC = system: EKVX NSCLC
SNB-19 CNS = system: SNB-19 CNS
KM12 colon = system: KM12 colon
RXF 393 renal = system: RXF 393 renal
NCI-H23 lung = system: NCI-H23 lung
HT29 colon = system: HT29 colon
MDA-MB-231 breast = system: MDA-MB-231 breast
UO-31 renal = system: UO-31 renal
A549 NSCLC = system: A549 NSCLC
HOP-92 NSCLC = system: HOP-92 NSCLC
MCF7 breast = system: MCF7 breast
NCI/ADR-RES ovarian = system: NCI/ADR-RES ovarian
786-0 renal = system: 786-0 renal
SK-MEL-2 melanoma = system: SK-MEL-2 melanoma
A498 renal = system: A498 renal
SK-OV-3 ovarian = system: SK-OV-3 ovarian
HL-60(TB) leukemia = system: HL-60(TB) leukemia
OVCAR-3 ovarian = system: OVCAR-3 ovarian
OVCAR-5 ovarian = system: OVCAR-5 ovarian
HCT-15 colon = system: HCT-15 colon
SK-MEL-5 melanoma = system: SK-MEL-5 melanoma
PC-3 prostate = system: PC-3 prostate
DU-145 prostate = system: DU-145 prostate
SNB-75 CNS = system: SNB-75 CNS
NCI-H522 lung = system: NCI-H522 lung
K-562 leukemia = system: K-562 leukemia
LOX IMVI melanoma = system: LOX IMVI melanoma
CCRF-CEM leukemia = system: CCRF-CEM leukemia
MDA-N = system: MDA-N

In the case of `Cn1ccnc1C(=O)/C=C/c1ccc(CC(=O)Nc2cc(F)c(F)c(F)c2)cc1`, the GI50 (IGROV1 ovarian) is reported as 1.4 µM, the TGI (IGROV1 ovarian) is reported as 8.22 µM and the GI50 (MDA-MB-435) is reported as 3.36 µM. For the same compound, the TGI (MDA-MB-435) was 10.4 µM, the GI50 (NCI-H226 lung) was 3.4 µM and the TGI (NCI-H226 lung) was 12.3 µM. It also gave a GI50 (SF-268 CNS) of 1.78 µM, a TGI (SF-268 CNS) of 9.57 µM and a GI50 (TK-10 renal) of 4.29 µM. For the same compound, the TGI (TK-10 renal) was 13.4 µM, the GI50 (HS 578T breast) was 10.8 µM and the TGI (HS 578T breast) was > 25 µM. For the same compound, the GI50 (T-47D breast) was 1.29 µM, the TGI (T-47D breast) was 8.14 µM and the GI50 (MOLT-4 leukemia) was 0.84 µM. For the same compound, the TGI (MOLT-4 leukemia) was 12.1 µM, the GI50 (ACHN renal) was 4.53 µM and the TGI (ACHN renal) was 19.2 µM. It also gave a GI50 (U251 CNS) of 0.837 µM, a TGI (U251 CNS) of 3.2 µM and a GI50 (COLO 205 colon) of 2.53 µM. It also gave a TGI (COLO 205 colon) of 7.08 µM, a GI50 (NCI-H460 lung) of 1.49 µM and a TGI (NCI-H460 lung) of 11.8 µM. It also gave a GI50 (M14 melanoma) of 3.68 µM, a TGI (M14 melanoma) of 8.45 µM and a GI50 (MALME-3M melanoma) of 3.65 µM. The TGI (MALME-3M melanoma) was 10.8 µM, the GI50 (RPMI-8226 leukemia) was 0.795 µM and the TGI (RPMI-8226 leukemia) was 3.54 µM. It also gave a GI50 (SK-MEL-28 melanoma) of 3.64 µM, a TGI (SK-MEL-28 melanoma) of 7.69 µM and a GI50 (SF-539 CNS) of 1.5 µM. The TGI (SF-539 CNS) was 4.68 µM, the GI50 (SF-295 CNS) was 6.63 µM and the TGI (SF-295 CNS) was > 25 µM. For the same compound, the GI50 (UACC-257 melanoma) was 3.59 µM, the TGI (UACC-257 melanoma) was 10.1 µM and the GI50 (SR leukemia) was 0.861 µM. It also gave a TGI (SR leukemia) of 8.91 µM, a GI50 (HOP-62 NSCLC) of 1.17 µM and a TGI (HOP-62 NSCLC) of 4.94 µM. The GI50 (SW-620 colon) was 1.46 µM, the TGI (SW-620 colon) was 8.98 µM and the GI50 (CAKI-1 renal) was 2.27 µM. The TGI (CAKI-1 renal) was 7.54 µM, the GI50 (OVCAR-8 ovarian) was 1.33 µM and the TGI (OVCAR-8 ovarian) was > 25 µM. The GI50 (OVCAR-4 ovarian) was 2.25 µM, the TGI (OVCAR-4 ovarian) was > 25 µM and the GI50 (UACC-62 melanoma) was 2.14 µM. For the same compound, the TGI (UACC-62 melanoma) was 9.59 µM, the GI50 (SN12C renal) was 1.4 µM and the TGI (SN12C renal) was 8.61 µM. It also gave a GI50 (BT-549 breast) of 1.15 µM, a TGI (BT-549 breast) of 4.47 µM and a GI50 (HCT-116 colon) of 1.22 µM. It also gave a TGI (HCT-116 colon) of 4.42 µM, a GI50 (HCC-2998 colon) of 2.55 µM and a TGI (HCC-2998 colon) of 6.04 µM. For the same compound, the GI50 (EKVX NSCLC) was 3.51 µM, the TGI (EKVX NSCLC) was 7.41 µM and the GI50 (SNB-19 CNS) was 2.87 µM. It also gave a TGI (SNB-19 CNS) of 6.59 µM, a GI50 (KM12 colon) of 1.58 µM and a TGI (KM12 colon) of 5.51 µM. It also gave a GI50 (RXF 393 renal) of 0.941 µM, a TGI (RXF 393 renal) of 4.11 µM and a GI50 (NCI-H23 lung) of 2.08 µM. It also gave a TGI (NCI-H23 lung) of 9.53 µM, a GI50 (HT29 colon) of 0.861 µM and a TGI (HT29 colon) of 12.7 µM. The GI50 (MDA-MB-231 breast) was 4.04 µM, the TGI (MDA-MB-231 breast) was > 25 µM and the GI50 (UO-31 renal) was 1.7 µM. For the same compound, the TGI (UO-31 renal) was 4.96 µM, the GI50 (A549 NSCLC) was 1.57 µM and the TGI (A549 NSCLC) was 20.2 µM. The GI50 (HOP-92 NSCLC) was 2.59 µM, the TGI (HOP-92 NSCLC) was 7.44 µM and the GI50 (MCF7 breast) was 1.36 µM. For the same compound, the TGI (MCF7 breast) was 6.82 µM, the GI50 (NCI/ADR-RES ovarian) was 1.09 µM and the TGI (NCI/ADR-RES ovarian) was > 25 µM. For the same compound, the GI50 (786-0 renal) was 2.44 µM, the TGI (786-0 renal) was 5.5 µM and the GI50 (SK-MEL-2 melanoma) was 4.22 µM. The TGI (SK-MEL-2 melanoma) was 10.6 µM, the GI50 (A498 renal) was 3.58 µM and the TGI (A498 renal) was 7.65 µM. The GI50 (SK-OV-3 ovarian) was 5.59 µM, the TGI (SK-OV-3 ovarian) was > 25 µM and the GI50 (HL-60(TB) leukemia) was 0.716 µM. For the same compound, the TGI (HL-60(TB) leukemia) was 2.45 µM, the GI50 (OVCAR-3 ovarian) was 1.36 µM and the TGI (OVCAR-3 ovarian) was 4.44 µM. For the same compound, the GI50 (OVCAR-5 ovarian) was 3.63 µM, the TGI (OVCAR-5 ovarian) was 9.39 µM and the GI50 (HCT-15 colon) was 1.03 µM. For the same compound, the TGI (HCT-15 colon) was 6.58 µM, the GI50 (SK-MEL-5 melanoma) was 3.25 µM and the TGI (SK-MEL-5 melanoma) was 6.47 µM. The GI50 (PC-3 prostate) was 1.26 µM, the TGI (PC-3 prostate) was 5.65 µM and the GI50 (DU-145 prostate) was 1.67 µM. For the same compound, the TGI (DU-145 prostate) was 4.87 µM, the GI50 (SNB-75 CNS) was 0.867 µM and the TGI (SNB-75 CNS) was > 25 µM. For the same compound, the GI50 (NCI-H522 lung) was 2.64 µM, the TGI (NCI-H522 lung) was 7.72 µM and the GI50 (K-562 leukemia) was 0.808 µM. For the same compound, the TGI (K-562 leukemia) was > 25 µM, the GI50 (LOX IMVI melanoma) was 1.03 µM and the TGI (LOX IMVI melanoma) was 3.79 µM.

In the case of `CC1CN=C(N(C(=O)Nc2ccccc2)C2CCCCC2)S1` (stereo not given), the TGI (IGROV1 ovarian) is reported as 35.6 µM, the TGI (SF-268 CNS) is reported as 46 µM and the TGI (TK-10 renal) is reported as 37 µM. The TGI (HS 578T breast) was 50 µM, the TGI (T-47D breast) was 92.7 µM and the TGI (MOLT-4 leukemia) was 38.8 µM. It also gave a TGI (ACHN renal) of 26.3 µM, a TGI (U251 CNS) of 30.8 µM and a TGI (COLO 205 colon) of 37 µM. For the same compound, the TGI (NCI-H460 lung) was 33.9 µM, the TGI (MALME-3M melanoma) was 32 µM and the TGI (RPMI-8226 leukemia) was 49.7 µM. For the same compound, the TGI (SK-MEL-28 melanoma) was 28.2 µM, the TGI (SF-539 CNS) was 43.2 µM and the TGI (SF-295 CNS) was 31.8 µM. For the same compound, the TGI (UACC-257 melanoma) was 30.2 µM, the TGI (SR leukemia) was 35.1 µM and the TGI (HOP-62 NSCLC) was > 100 µM. The TGI (CCRF-CEM leukemia) was 53.7 µM, the TGI (SW-620 colon) was 28.5 µM and the TGI (CAKI-1 renal) was 31.2 µM. For the same compound, the TGI (OVCAR-8 ovarian) was 75 µM, the TGI (OVCAR-4 ovarian) was 30.2 µM and the TGI (SN12C renal) was 31.2 µM. The TGI (HCT-116 colon) was 33.1 µM, the TGI (HCC-2998 colon) was 34.6 µM and the TGI (EKVX NSCLC) was 35.4 µM. For the same compound, the TGI (SNB-19 CNS) was 81.8 µM, the TGI (KM12 colon) was 36.3 µM and the TGI (MDA-N) was 30.1 µM. For the same compound, the TGI (NCI-H23 lung) was 33.8 µM, the TGI (HT29 colon) was 32.9 µM and the TGI (MDA-MB-231 breast) was 29.9 µM. It also gave a TGI (UO-31 renal) of 32.3 µM, a TGI (A549 NSCLC) of 34.2 µM and a TGI (MCF7 breast) of 31.8 µM. For the same compound, the TGI (NCI/ADR-RES ovarian) was 33.3 µM, the TGI (786-0 renal) was 31.4 µM and the TGI (SK-MEL-2 melanoma) was 29.5 µM. For the same compound, the TGI (A498 renal) was 34.7 µM, the TGI (SK-OV-3 ovarian) was > 100 µM and the TGI (HL-60(TB) leukemia) was 35.6 µM. The TGI (OVCAR-3 ovarian) was 31.8 µM, the TGI (OVCAR-5 ovarian) was 28.9 µM and the TGI (HCT-15 colon) was 28.9 µM. For the same compound, the TGI (SK-MEL-5 melanoma) was 28.4 µM, the TGI (PC-3 prostate) was 31.3 µM and the TGI (DU-145 prostate) was 69.7 µM. It also gave a TGI (SNB-75 CNS) of 28.9 µM, a TGI (K-562 leukemia) of 73.2 µM and a TGI (LOX IMVI melanoma) of 27.1 µM.
